Measurements published in PubChem BioAssay (NCI).
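Results reflect a 48-hour exposure of cells in 96-well plates to compound at five concentrations. GI50 is the concentration that inhibits growth by half. Definition used: TGI = concentration required for complete inhibition of growth.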

Experiments:
Assay in all cases: inhibition of tumour cell growth, NCI panel, 48 h; in the data active means GI50 below about 0.43 µM; inactive means the rest
A549 NSCLC = test system: A549 NSCLC
ACHN renal = test system: ACHN renal
CCRF-CEM leukemia = test system: CCRF-CEM leukemia
DLD-1 colon = test system: DLD-1 colon
EKVX NSCLC = test system: EKVX NSCLC
HCC-2998 colon = test system: HCC-2998 colon
HCT-15 colon = test system: HCT-15 colon
HL-60(TB) leukemia = test system: HL-60(TB) leukemia
HOP-62 NSCLC = test system: HOP-62 NSCLC
HOP-92 NSCLC = test system: HOP-92 NSCLC
HT29 colon = test system: HT29 colon
IGROV1 ovarian = test system: IGROV1 ovarian
K-562 leukemia = test system: K-562 leukemia
KM12 colon = test system: KM12 colon
KM20L2 colon = test system: KM20L2 colon
LOX IMVI melanoma = test system: LOX IMVI melanoma
LXFL 529 NSCLC = test system: LXFL 529 NSCLC
M14 melanoma = test system: M14 melanoma
M19-MEL melanoma = test system: M19-MEL melanoma
MALME-3M melanoma = test system: MALME-3M melanoma
MOLT-4 leukemia = test system: MOLT-4 leukemia
NCI-H23 lung = test system: NCI-H23 lung
NCI-H460 lung = test system: NCI-H460 lung
NCI-H522 lung = test system: NCI-H522 lung
OVCAR-3 ovarian = test system: OVCAR-3 ovarian
OVCAR-4 ovarian = test system: OVCAR-4 ovarian
OVCAR-5 ovarian = test system: OVCAR-5 ovarian
OVCAR-8 ovarian = test system: OVCAR-8 ovarian
RXF 393 renal = test system: RXF 393 renal
SF-295 CNS = test system: SF-295 CNS
SF-539 CNS = test system: SF-539 CNS
SK-MEL-2 melanoma = test system: SK-MEL-2 melanoma
SK-MEL-28 melanoma = test system: SK-MEL-28 melanoma
SK-MEL-5 melanoma = test system: SK-MEL-5 melanoma
SK-OV-3 ovarian = test system: SK-OV-3 ovarian
SN12C renal = test system: SN12C renal
SNB-75 CNS = test system: SNB-75 CNS
SNB-78 CNS = test system: SNB-78 CNS
SR leukemia = test system: SR leukemia
SW-620 colon = test system: SW-620 colon
TK-10 renal = test system: TK-10 renal
U251 CNS = test system: U251 CNS
UACC-257 melanoma = test system: UACC-257 melanoma
UACC-62 melanoma = test system: UACC-62 melanoma
UO-31 renal = test system: UO-31 renal
XF 498 CNS = test system: XF 498 CNS
786-0 renal = test system: 786-0 renal
A498 renal = test system: A498 renal
CAKI-1 renal = test system: CAKI-1 renal
COLO 205 colon = test system: COLO 205 colon
DMS 114 small cell lung = test system: DMS 114 small cell lung
DMS 273 small cell lung = test system: DMS 273 small cell lung
HCT-116 colon = test system: HCT-116 colon
HOP-18 NSCLC = test system: HOP-18 NSCLC
NCI-H226 lung = test system: NCI-H226 lung
RPMI-8226 leukemia = test system: RPMI-8226 leukemia
RXF-631 renal = test system: RXF-631 renal
SF-268 CNS = test system: SF-268 CNS
SNB-19 CNS = test system: SNB-19 CNS

CC1OC=CC(=O)C1O (stereo not given)
> 100 µM: TGI (A549 NSCLC) | TGI (ACHN renal) | TGI (CCRF-CEM leukemia) | TGI (DLD-1 colon) | TGI (EKVX NSCLC) | TGI (HCC-2998 colon) | TGI (HCT-15 colon) | TGI (HL-60(TB) leukemia) | TGI (HOP-62 NSCLC) | TGI (HOP-92 NSCLC) | TGI (HT29 colon) | TGI (IGROV1 ovarian) | TGI (K-562 leukemia) | TGI (KM12 colon) | TGI (KM20L2 colon) | TGI (LOX IMVI melanoma) | TGI (LXFL 529 NSCLC) | TGI (M14 melanoma) | TGI (M19-MEL melanoma) | TGI (MALME-3M melanoma) | TGI (MOLT-4 leukemia) | TGI (NCI-H23 lung) | TGI (NCI-H460 lung) | TGI (NCI-H522 lung) | TGI (OVCAR-3 ovarian) | TGI (OVCAR-4 ovarian) | TGI (OVCAR-5 ovarian) | TGI (OVCAR-8 ovarian) | TGI (RXF 393 renal) | TGI (SF-295 CNS) | TGI (SF-539 CNS) | TGI (SK-MEL-2 melanoma) | TGI (SK-MEL-28 melanoma) | TGI (SK-MEL-5 melanoma) | TGI (SK-OV-3 ovarian) | TGI (SN12C renal) | TGI (SNB-75 CNS) | TGI (SNB-78 CNS) | TGI (SR leukemia) | TGI (SW-620 colon) | TGI (TK-10 renal) | TGI (U251 CNS) | TGI (UACC-257 melanoma) | TGI (UACC-62 melanoma) | TGI (UO-31 renal) | TGI (XF 498 CNS)

CCCCN(CCCC)C(=O)C(=O)CC(=O)/C=C/c1ccccc1
> 100 µM: TGI (786-0 renal) | TGI (A498 renal) | TGI (A549 NSCLC) | TGI (ACHN renal) | TGI (CAKI-1 renal) | TGI (CCRF-CEM leukemia) | TGI (COLO 205 colon) | TGI (DLD-1 colon) | TGI (DMS 114 small cell lung) | TGI (DMS 273 small cell lung) | TGI (EKVX NSCLC) | TGI (HCC-2998 colon) | TGI (HCT-116 colon) | TGI (HCT-15 colon) | TGI (HL-60(TB) leukemia) | TGI (HOP-18 NSCLC) | TGI (HOP-62 NSCLC) | TGI (HOP-92 NSCLC) | TGI (HT29 colon) | TGI (IGROV1 ovarian) | TGI (K-562 leukemia) | TGI (KM12 colon) | TGI (KM20L2 colon) | TGI (LOX IMVI melanoma) | TGI (LXFL 529 NSCLC) | TGI (M14 melanoma) | TGI (M19-MEL melanoma) | TGI (MALME-3M melanoma) | TGI (MOLT-4 leukemia) | TGI (NCI-H226 lung) | TGI (NCI-H23 lung) | TGI (NCI-H460 lung) | TGI (NCI-H522 lung) | TGI (OVCAR-3 ovarian) | TGI (OVCAR-4 ovarian) | TGI (OVCAR-5 ovarian) | TGI (OVCAR-8 ovarian) | TGI (RPMI-8226 leukemia) | TGI (RXF 393 renal) | TGI (RXF-631 renal) | TGI (SF-268 CNS) | TGI (SF-295 CNS) | TGI (SF-539 CNS) | TGI (SK-MEL-2 melanoma) | TGI (SK-MEL-28 melanoma) | TGI (SK-MEL-5 melanoma) | TGI (SK-OV-3 ovarian) | TGI (SN12C renal) | TGI (SNB-19 CNS) | TGI (SNB-75 CNS) | TGI (SNB-78 CNS) | TGI (SR leukemia) | TGI (SW-620 colon) | TGI (TK-10 renal) | TGI (U251 CNS) | TGI (UACC-257 melanoma) | TGI (UACC-62 melanoma) | TGI (UO-31 renal)

CCC1(CC)C(=O)[N-]C(=O)[N-]C1=O.[Au+].[Au+].c1ccc([PH+](c2ccccc2)c2ccccc2)cc1.c1ccc([PH+](c2ccccc2)c2ccccc2)cc1
3.07 µM: TGI (ACHN renal)
2.53 µM: TGI (UACC-257 melanoma)
0.323 µM: TGI (LXFL 529 NSCLC)
inactive: GI50 (786-0 renal) 0.911 µM | GI50 (ACHN renal) 1.7 µM | GI50 (COLO 205 colon) 1.74 µM | GI50 (HCC-2998 colon) 1.98 µM | GI50 (IGROV1 ovarian) 1.03 µM | GI50 (M14 melanoma) 0.752 µM | GI50 (M19-MEL melanoma) 0.937 µM | GI50 (MALME-3M melanoma) 0.626 µM | GI50 (NCI-H460 lung) 1.99 µM | GI50 (OVCAR-3 ovarian) 1.31 µM | GI50 (OVCAR-5 ovarian) 1.68 µM | GI50 (SF-295 CNS) 1.52 µM | GI50 (SK-MEL-28 melanoma) 0.988 µM | GI50 (SK-MEL-5 melanoma) 1.05 µM | GI50 (SK-OV-3 ovarian) 1.73 µM | GI50 (SN12C renal) 2.08 µM | GI50 (TK-10 renal) 1.79 µM | GI50 (U251 CNS) 1.16 µM | GI50 (UACC-257 melanoma) 1.26 µM | GI50 (UACC-62 melanoma) 1.02 µM | GI50 (UO-31 renal) 1.65 µM
1.16 µM: TGI (HOP-18 NSCLC)
2.3 µM: TGI (IGROV1 ovarian)
2.14 µM: TGI (786-0 renal)
1.94 µM: TGI (MALME-3M melanoma)
2.17 µM: TGI (M19-MEL melanoma)
3.36 µM: TGI (COLO 205 colon)
2.05 µM: TGI (M14 melanoma)
4.69 µM: TGI (NCI-H460 lung)
3.18 µM: TGI (TK-10 renal)
3.04 µM: TGI (UO-31 renal)
2.59 µM: TGI (OVCAR-3 ovarian)
3.06 µM: TGI (OVCAR-5 ovarian)
active: GI50 (HOP-18 NSCLC) 0.256 µM | GI50 (LXFL 529 NSCLC) 0.153 µM | GI50 (NCI-H522 lung) 0.119 µM
3.11 µM: TGI (SK-OV-3 ovarian)
2.91 µM: TGI (SF-295 CNS)
0.244 µM: TGI (NCI-H522 lung)
2.2 µM: TGI (UACC-62 melanoma)
4.75 µM: TGI (SN12C renal)
3.41 µM: TGI (HCC-2998 colon)
2.26 µM: TGI (SK-MEL-5 melanoma)
2.34 µM: TGI (SK-MEL-28 melanoma)
2.65 µM: TGI (U251 CNS)

CCOC(=O)/C(C#N)=C(N)/C(=N\Nc1cccc(C(F)(F)F)c1)C(=O)OCC
> 100 µM: TGI (786-0 renal) | TGI (A498 renal) | TGI (A549 NSCLC) | TGI (ACHN renal) | TGI (CAKI-1 renal) | TGI (CCRF-CEM leukemia) | TGI (COLO 205 colon) | TGI (DLD-1 colon) | TGI (DMS 114 small cell lung) | TGI (DMS 273 small cell lung) | TGI (EKVX NSCLC) | TGI (HCC-2998 colon) | TGI (HCT-116 colon) | TGI (HCT-15 colon) | TGI (HL-60(TB) leukemia) | TGI (HOP-18 NSCLC) | TGI (HOP-62 NSCLC) | TGI (HOP-92 NSCLC) | TGI (HT29 colon) | TGI (IGROV1 ovarian) | TGI (KM20L2 colon) | TGI (LOX IMVI melanoma) | TGI (LXFL 529 NSCLC) | TGI (M14 melanoma) | TGI (M19-MEL melanoma) | TGI (MALME-3M melanoma) | TGI (MOLT-4 leukemia) | TGI (NCI-H226 lung) | TGI (NCI-H23 lung) | TGI (NCI-H522 lung) | TGI (OVCAR-3 ovarian) | TGI (OVCAR-4 ovarian) | TGI (OVCAR-5 ovarian) | TGI (OVCAR-8 ovarian) | TGI (RPMI-8226 leukemia) | TGI (SF-268 CNS) | TGI (SF-295 CNS) | TGI (SF-539 CNS) | TGI (SK-MEL-2 melanoma) | TGI (SK-MEL-28 melanoma) | TGI (SK-MEL-5 melanoma) | TGI (SK-OV-3 ovarian) | TGI (SN12C renal) | TGI (SNB-19 CNS) | TGI (SNB-75 CNS) | TGI (SNB-78 CNS) | TGI (SR leukemia) | TGI (SW-620 colon) | TGI (TK-10 renal) | TGI (U251 CNS) | TGI (UACC-257 melanoma) | TGI (UACC-62 melanoma) | TGI (UO-31 renal)
